The values below come from PubChem BioAssay (NCI).

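Where inhibition never reached the appropriate level, the endpoint shown equals the highest concentration tested. Otherwise, values were interpolated linearly from a five-concentration, 48-hour dose response in 96-well plates. At the GI50, growth is halved. TGI denotes the concentration required for complete inhibition of growth.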

Test systems include A549 NSCLC; EKVX NSCLC; IGROV1 ovarian; M14 melanoma; MOLT-4 leukemia; NCI-H460 lung; OVCAR-4 ovarian; SK-MEL-28 melanoma; SN12C renal; UO-31 renal.
What all share (test): growth of human tumour cells (NCI), 48 h

Turning to `CC(C)(C)C(=O)[CH-]C(=O)C(C)(C)C.CC(C)(C)C(=O)[CH-]C(=O)C(C)(C)C.CN(C)c1ccc([O-])cc1.CN(C)c1ccc([O-])cc1.[Ti+4]`, the GI50 is more than 100 µM in the test on A549 NSCLC; more than 100 µM in the test with EKVX NSCLC; more than 100 µM in the test with IGROV1 ovarian; 60.8 µM in the test on M14 melanoma; more than 100 µM in the test on MOLT-4 leukemia; more than 100 µM with NCI-H460 lung. Further, the GI50 with OVCAR-4 ovarian, in the test with SK-MEL-28 melanoma, with SN12C renal and in the test on UO-31 renal was more than 100 µM each time. For the same molecule, the TGI in the test on A549 NSCLC, with EKVX NSCLC, in the test on IGROV1 ovarian, with M14 melanoma, with MOLT-4 leukemia and in the test with NCI-H460 lung was more than 100 µM in each case. The TGI in the test on OVCAR-4 ovarian, with SK-MEL-28 melanoma, with SN12C renal and with UO-31 renal was more than 100 µM throughout.
As to `O=c1oc2ccccc2[n+]([O-])c1-c1ccccc1`, the TGI with A549 NSCLC, in the test with EKVX NSCLC, in the test on IGROV1 ovarian, in the test with M14 melanoma, with MOLT-4 leukemia and in the test on NCI-H460 lung was more than 100 µM throughout. Also, the TGI in the test with OVCAR-4 ovarian, in the test with SK-MEL-28 melanoma, in the test with SN12C renal and with UO-31 renal was more than 100 µM throughout.
On to `O=C(O)c1ccccc1/C=N/N=C1c2ccccc2-c2ccccc21`, for which the TGI in the test on A549 NSCLC is more than 100 µM; with EKVX NSCLC, more than 100 µM; with IGROV1 ovarian, more than 100 µM; in the test with M14 melanoma it was more than 100 µM; with MOLT-4 leukemia, 71 µM; in the test with NCI-H460 lung it was 70.2 µM. In addition, the TGI in the test on OVCAR-4 ovarian, in the test on SK-MEL-28 melanoma, in the test with SN12C renal and in the test with UO-31 renal was more than 100 µM in each case.
With `COc1ccc(OC)c(Cn2cc3c(c2-c2ccccc2)CCc2cnoc2-3)c1`, the GI50 with A549 NSCLC is 5.75 µM; in the test with EKVX NSCLC, 6.9 µM; in the test with IGROV1 ovarian, 6.11 µM; with M14 melanoma, 4.82 µM; with MOLT-4 leukemia it was 3.95 µM; in the test on NCI-H460 lung it was 3.3 µM. The GI50 in the test with OVCAR-4 ovarian is 11.3 µM; in the test on SK-MEL-28 melanoma, 6.8 µM; with SN12C renal it was 23.8 µM; in the test on UO-31 renal it was 6.38 µM. Further, the TGI in the test on A549 NSCLC, in the test with EKVX NSCLC, with IGROV1 ovarian, in the test with M14 melanoma, in the test on MOLT-4 leukemia and in the test on NCI-H460 lung was more than 100 µM in each case. Besides, the TGI with OVCAR-4 ovarian, in the test on SK-MEL-28 melanoma, in the test on SN12C renal and with UO-31 renal was more than 100 µM throughout.
As for `O=C(N[C@@H](C[Se][Se]C[C@H](NC(=O)c1ccc(Br)cc1F)C(=O)O)C(=O)O)c1ccc(Br)cc1F`, the GI50 in the test with A549 NSCLC, in the test with EKVX NSCLC, in the test on IGROV1 ovarian, with M14 melanoma, in the test on MOLT-4 leukemia and in the test on NCI-H460 lung was more than 100 µM throughout. Besides, the GI50 in the test with OVCAR-4 ovarian, in the test on SK-MEL-28 melanoma, in the test with SN12C renal and in the test with UO-31 renal was more than 100 µM throughout. Moreover, the TGI in the test with A549 NSCLC, with EKVX NSCLC, with IGROV1 ovarian, in the test on M14 melanoma, with MOLT-4 leukemia and in the test with NCI-H460 lung was more than 100 µM each time. Besides, the TGI in the test with OVCAR-4 ovarian, in the test on SK-MEL-28 melanoma, in the test with SN12C renal and in the test on UO-31 renal was more than 100 µM each time.
Turning to `C/C(=N\NC(=O)CC#N)c1c(O)cc(C)oc1=O`, the TGI in the test with A549 NSCLC, in the test on EKVX NSCLC, with IGROV1 ovarian, in the test on M14 melanoma, in the test with MOLT-4 leukemia and in the test with NCI-H460 lung was more than 100 µM each time. For the same molecule, the TGI in the test with OVCAR-4 ovarian, with SK-MEL-28 melanoma, in the test on SN12C renal and in the test on UO-31 renal was more than 100 µM each time.
On to `Cc1cc(N(CCC#N)CCC#N)ccc1/C=C(\NC(=O)/C=C/c1ccccc1)C(=O)NN`, for which the TGI with A549 NSCLC, in the test on EKVX NSCLC, with IGROV1 ovarian, in the test with M14 melanoma, in the test with MOLT-4 leukemia and in the test on NCI-H460 lung was more than 100 µM throughout. The TGI in the test on OVCAR-4 ovarian, with SK-MEL-28 melanoma, with SN12C renal and in the test on UO-31 renal was more than 100 µM throughout.
In the case of `O=C(/C=C/c1ccccc1)c1ccc(NCc2nc3ccccc3[nH]2)cc1`, the TGI in the test on A549 NSCLC was 17.4 µM; in the test with EKVX NSCLC, 22.5 µM; with IGROV1 ovarian it was 19.8 µM; in the test with M14 melanoma, 21.4 µM; with MOLT-4 leukemia, 32.3 µM; in the test with NCI-H460 lung, 12 µM. The TGI with OVCAR-4 ovarian was determined as 22.8 µM; in the test with SK-MEL-28 melanoma it was 32.6 µM; in the test on SN12C renal, 15.4 µM; in the test on UO-31 renal it was 20.2 µM.
